In paper PMC12408681, “Tail-less precursors in synthetic cannabinoid production: investigating a clandestine laboratory, seized samples, and CB1 activity” (Archives of Toxicology, 2025):
Where “and” joins values, the source holds several entries; their conditions need not be identical. Equal values may be shown once.

What was measured:
human CB1 [1] = biological target: T1, human CB1 (Homo sapiens, UniProt P21554); assay: NanoBiT CB1 β-arrestin 2 recruitment assay; type: cell-based; design: expressed in transfected cells; settings: for Efficacy (Emax) Mean Diff: CP55,940 as reference
Target sequence in this assay (P21554 whole entry): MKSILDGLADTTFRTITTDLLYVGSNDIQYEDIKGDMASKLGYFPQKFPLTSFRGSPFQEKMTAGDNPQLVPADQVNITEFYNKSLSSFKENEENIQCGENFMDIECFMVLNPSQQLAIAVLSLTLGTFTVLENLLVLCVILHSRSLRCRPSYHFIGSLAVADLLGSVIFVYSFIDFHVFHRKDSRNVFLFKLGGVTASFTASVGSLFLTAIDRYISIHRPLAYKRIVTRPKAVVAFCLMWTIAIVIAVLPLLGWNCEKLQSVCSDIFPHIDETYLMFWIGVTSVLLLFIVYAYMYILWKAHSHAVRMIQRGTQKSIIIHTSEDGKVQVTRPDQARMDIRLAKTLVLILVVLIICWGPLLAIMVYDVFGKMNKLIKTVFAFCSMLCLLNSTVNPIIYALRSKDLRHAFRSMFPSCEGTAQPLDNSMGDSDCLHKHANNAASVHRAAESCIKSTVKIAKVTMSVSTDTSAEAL
Target sequence in this assay (P32121 whole entry partner): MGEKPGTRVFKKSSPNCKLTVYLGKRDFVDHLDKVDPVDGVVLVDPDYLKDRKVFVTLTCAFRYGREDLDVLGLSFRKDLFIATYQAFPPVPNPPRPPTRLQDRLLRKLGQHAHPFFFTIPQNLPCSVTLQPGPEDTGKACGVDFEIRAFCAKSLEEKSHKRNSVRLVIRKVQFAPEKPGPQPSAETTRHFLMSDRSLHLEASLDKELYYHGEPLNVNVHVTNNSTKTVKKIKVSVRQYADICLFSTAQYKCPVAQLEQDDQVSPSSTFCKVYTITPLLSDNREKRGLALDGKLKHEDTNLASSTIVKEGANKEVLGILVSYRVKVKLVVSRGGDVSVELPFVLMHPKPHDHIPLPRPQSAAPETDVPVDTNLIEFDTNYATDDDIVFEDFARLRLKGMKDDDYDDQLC

human CB1 [2] = biological target: T1, human CB1; assay: AequoScreen CB1 intracellular Ca2+ release assay; type: cell-based; design: host or cells: CHO-K1 (AequoZen recombinant cell line)
Target sequence in this assay (P21554 whole entry): as the sequence (P21554 whole entry) above

[3] = system: paclitaxel-induced peripheral neuropathy; design: method as in one study (reference not given); settings: rats; ref one study (reference not given); cited from earlier work
[4] = Potency (EC50, nM) β-arrestin 2, Table 4, reference standards and precursor:final SCRA mixtures, total (combined) SCRA concentration, n ≥ 3
[5] = Potency (EC50, nM) β-arrestin 2, Table 5, Ref (reference standard)
[6] = Table 4, reference standards and mixtures, total SCRA concentration
[7] = Table 5, Ref (reference standard)
[8] = Potency (EC50, nM) AequoScreen, Table 4, reference standards and mixtures, total SCRA concentration, n ≥ 3
[9] = Potency (EC50, nM) AequoScreen, Table 5, Ref (reference standard)
[10] = Table 5, Ref (reference standard), read-out: Potency (EC50, nM) β-arrestin 2
[11] = Table 5, Ref (reference standard), read-out: Potency (EC50, nM) AequoScreen
[12] = vs 5% MDMB-4en-PINACA, only concentration of final product in mixture
[13] = vs 5% MDMB-4en-PINACA, total concentration of SCRAs in mixture
[14] = vs 25% MDMB-4en-PINACA, only concentration of final product in mixture
[15] = vs 25% MDMB-4en-PINACA, total concentration of SCRAs in mixture
[16] = vs 50% MDMB-4en-PINACA, only concentration of final product in mixture
[17] = vs 50% MDMB-4en-PINACA, total concentration of SCRAs in mixture
[18] = vs 75% MDMB-4en-PINACA, only concentration of final product in mixture
[19] = vs 75% MDMB-4en-PINACA, total concentration of SCRAs in mixture

**Q.** Which “Efficacy (Emax) Mean Diff” value (human CB1 [1]; vs 5% ADB-BUTINACA, only concentration of final product in mixture) does the source give for `CCCCn1nc(C(=O)N[C@H](C(N)=O)C(C)(C)C)c2ccccc21` [100% ADB-BUTINACA] here?
**A.** 76.63

**Q.** And the “Efficacy (Emax) Mean Diff” value (human CB1 [1]; vs 5% ADB-BUTINACA, total concentration of SCRAs in mixture)?
**A.** 98.60

**Q.** What about the “Efficacy (Emax) Mean Diff” value (human CB1 [1]; vs 25% ADB-BUTINACA, only concentration of final product in mixture) of the same molecule?
**A.** 52.66

**Q.** What about the “Efficacy (Emax) Mean Diff” value (human CB1 [1]; vs 25% ADB-BUTINACA, total concentration of SCRAs in mixture) of the same molecule?
**A.** 66.35

**Q.** And the “Efficacy (Emax) Mean Diff” value (human CB1 [1]; vs 50% ADB-BUTINACA, only concentration of final product in mixture)?
**A.** 144.9

**Q.** And the “Efficacy (Emax) Mean Diff” value (human CB1 [1]; vs 50% ADB-BUTINACA, total concentration of SCRAs in mixture)?
**A.** 155.6

**Q.** And the “Efficacy (Emax) Mean Diff” value (human CB1 [1]; vs 75% ADB-BUTINACA, only concentration of final product in mixture)?
**A.** 60.28

**Q.** And the “Efficacy (Emax) Mean Diff” value (human CB1 [1]; vs 75% ADB-BUTINACA, total concentration of SCRAs in mixture)?
**A.** 70.25

**Q.** Which EC50 (human CB1 [1]; [4]) does the source give for `C=CCCCn1nc(C(=O)NC(C(=O)OC)C(C)(C)C)c2ccccc21` (stereo not shown) [MDMB-4en-PINACA, methyl 3,3-dimethyl-2-(1-(pent-4-en-1-yl)-1H-indazole-3-carboxamido)butanoate] here?
**A.** 1.8 nM

**Q.** What about the EC50 (human CB1 [1]; [5]) of the same molecule?
**A.** 1.8 nM

**Q.** And the “Efficacy (% of CP55,940) Emax β-arrestin 2” value (human CB1 [1]; [6])?
**A.** 1088 % of CP55,940 and 1090 % of CP55,940

**Q.** And the “Efficacy (% of CP55,940) Emax β-arrestin 2” value (human CB1 [1]; [7])?
**A.** 1090 % of CP55,940

**Q.** What about the EC50 (human CB1 [2]; [8]) of the same molecule?
**A.** 1.2 nM and 1.17 nM

**Q.** What about the EC50 (human CB1 [2]; [9]) of the same molecule?
**A.** 1.89 nM

**Q.** And the “Efficacy (% of JWH-018) Emax AequoScreen” value (human CB1 [2]; [6])?
**A.** 104 % of JWH-018

**Q.** What about the “Efficacy (% of JWH-018) Emax AequoScreen” value (human CB1 [2]; [7]) of the same molecule?
**A.** 109 % of JWH-018

**Q.** What does the source list for `CCCCCn1cc(C(=O)c2cccc3ccccc23)c2ccccc21` [JWH-018, reference compound]?
**A.** Efficacy (% of CP55,940) Emax β-arrestin 2 (human CB1 [1]; [6]): 335 % of CP55,940; EC50 (human CB1 [1]; Table 4, reference standards and precursor:final SCRA mixtures, total (combined) SCRA concentration, n ≥ 3, read-out: Potency (EC50, nM) β-arrestin 2): 9.55 nM; Efficacy (% of CP55,940) Emax β-arrestin 2 (human CB1 [1]; [7]): 352 % of CP55,940; EC50 (human CB1 [1]; [10]): 11 nM; Efficacy (% of JWH-018) Emax AequoScreen (human CB1 [2]; [6]): 97.6 % of JWH-018; EC50 (human CB1 [2]; Table 4, reference standards and mixtures, total SCRA concentration, n ≥ 3, read-out: Potency (EC50, nM) AequoScreen): 5.14 nM; Efficacy (% of JWH-018) Emax AequoScreen (human CB1 [2]; [7]): 99.8 % of JWH-018; EC50 (human CB1 [2]; [11]): 13.5 nM

**Q.** For `CCCCn1nc(C(=O)NC(C(N)=O)C(C)(C)C)c2ccccc21` (stereo not shown) [ADB-BUTINACA], which EC50 (human CB1 [1]; [4]) is on record?
**A.** 6.7 nM and 6.73 nM

**Q.** What about the EC50 (human CB1 [1]; [5]) of the same molecule?
**A.** 5.65 nM

**Q.** And the “Efficacy (% of CP55,940) Emax β-arrestin 2” value (human CB1 [1]; [6])?
**A.** 1282 % of CP55,940 and 1280 % of CP55,940

**Q.** What about the “Efficacy (% of CP55,940) Emax β-arrestin 2” value (human CB1 [1]; [7]) of the same molecule?
**A.** 1330 % of CP55,940

**Q.** And the EC50 (human CB1 [2]; [8])?
**A.** 5.6 nM and 5.64 nM

**Q.** And the EC50 (human CB1 [2]; [9])?
**A.** 7.27 nM

**Q.** What about the “Efficacy (% of JWH-018) Emax AequoScreen” value (human CB1 [2]; [6]) of the same molecule?
**A.** 105 % of JWH-018

**Q.** And the “Efficacy (% of JWH-018) Emax AequoScreen” value (human CB1 [2]; [7])?
**A.** 111 % of JWH-018

**Q.** Which results are given for `COC(=O)[C@@H](NC(=O)c1n[nH]c2ccccc12)C(C)(C)C` [MDMB-INACA (ref)]?
**A.** Efficacy (Emax) Mean Diff (human CB1 [1]; vs MDMB-INACA (seizure)): -144.0; Efficacy (Emax) Mean Diff (human CB1 [2]; vs MDMB-INACA (seizure), CP55,940 as reference): 1.797

**Q.** With `C=CCCCn1nc(C(=O)N[C@H](C(=O)OC)C(C)(C)C)c2ccccc21` [100% MDMB-4en-PINACA] as the molecule, how does the “Efficacy (Emax) Mean Diff” value (human CB1 [1]; [12]) read?
**A.** -14.08

**Q.** What about the “Efficacy (Emax) Mean Diff” value (human CB1 [1]; [13]) of the same molecule?
**A.** -3.010

**Q.** And the “Efficacy (Emax) Mean Diff” value (human CB1 [1]; [14])?
**A.** -32.68

**Q.** And the “Efficacy (Emax) Mean Diff” value (human CB1 [1]; [15])?
**A.** -24.05

**Q.** What about the “Efficacy (Emax) Mean Diff” value (human CB1 [1]; [16]) of the same molecule?
**A.** -21.46

**Q.** And the “Efficacy (Emax) Mean Diff” value (human CB1 [1]; [17])?
**A.** -9.133

**Q.** And the “Efficacy (Emax) Mean Diff” value (human CB1 [1]; [18])?
**A.** 14.76

**Q.** What about the “Efficacy (Emax) Mean Diff” value (human CB1 [1]; [19]) of the same molecule?
**A.** 26.09

**Q.** What does the source list for `COC(=O)[C@@H](NC(=O)c1n[nH]c2ccccc12)C(C)(C)C` [100% MDMB-INACA]?
**A.** Efficacy (Emax) Mean Diff (human CB1 [1]; [12]): 550.8; Efficacy (Emax) Mean Diff (human CB1 [1]; [13]): 539.7; Efficacy (Emax) Mean Diff (human CB1 [1]; [14]): 569.4; Efficacy (Emax) Mean Diff (human CB1 [1]; [15]): 560.7; Efficacy (Emax) Mean Diff (human CB1 [1]; [16]): 558.2; Efficacy (Emax) Mean Diff (human CB1 [1]; [17]): 545.8; Efficacy (Emax) Mean Diff (human CB1 [1]; [18]): 521.9; Efficacy (Emax) Mean Diff (human CB1 [1]; [19]): 510.6; Efficacy (Emax) Mean Diff (human CB1 [1]; vs 100% MDMB-4en-PINACA, only concentration of final product in mixture): 536.7; Efficacy (Emax) Mean Diff (human CB1 [1]; vs 100% MDMB-4en-PINACA, total concentration of SCRAs in mixture): 536.7; Efficacy (Emax) Mean Diff (human CB1 [2]; vs 5% MDMB-4en-PINACA, only concentration of final product in mixture, JWH-018 as reference): 2.037; Efficacy (Emax) Mean Diff (human CB1 [2]; vs 5% MDMB-4en-PINACA, total concentration of SCRAs in mixture, JWH-018 as reference): 6.744; Efficacy (Emax) Mean Diff (human CB1 [2]; vs 25% MDMB-4en-PINACA, only concentration of final product in mixture, JWH-018 as reference): -0.07601; Efficacy (Emax) Mean Diff (human CB1 [2]; vs 25% MDMB-4en-PINACA, total concentration of SCRAs in mixture, JWH-018 as reference): 2.036; Efficacy (Emax) Mean Diff (human CB1 [2]; vs 50% MDMB-4en-PINACA, only concentration of final product in mixture, JWH-018 as reference): 9.030; Efficacy (Emax) Mean Diff (human CB1 [2]; vs 50% MDMB-4en-PINACA, total concentration of SCRAs in mixture, JWH-018 as reference): -0.07656; Efficacy (Emax) Mean Diff (human CB1 [2]; vs 75% MDMB-4en-PINACA, only concentration of final product in mixture, JWH-018 as reference): 6.745; Efficacy (Emax) Mean Diff (human CB1 [2]; vs 75% MDMB-4en-PINACA, total concentration of SCRAs in mixture, JWH-018 as reference): 9.029; Efficacy (Emax) Mean Diff (human CB1 [2]; vs 100% MDMB-4en-PINACA, only concentration of final product in mixture, JWH-018 as reference): 8.229; Efficacy (Emax) Mean Diff (human CB1 [2]; vs 100% MDMB-4en-PINACA, total concentration of SCRAs in mixture, JWH-018 as reference): 8.229

**Q.** What does the source list for `COC(=O)C(NC(=O)c1n[nH]c2ccccc12)C(C)(C)C` (stereo not shown) [MDMB-INACA]?
**A.** Analgesic effects on paclitaxel-induced peripheral neuropathy [3]: analgesic effects; Efficacy (% of CP55,940) Emax β-arrestin 2 (human CB1 [1]; [7]): 294 % of CP55,940; EC50 (human CB1 [1]; [10]): 2400 nM; Efficacy (% of CP55,940) Emax β-arrestin 2 (human CB1 [1]; Table 5, Seizure (precursor seized in Switzerland)): 438 % of CP55,940; EC50 (human CB1 [1]; Table 5, Seizure (precursor seized in Switzerland), read-out: Potency (EC50, nM) β-arrestin 2): 2190 nM; EC50 (human CB1 [2]; [11]): 11200 nM; EC50 (human CB1 [2]; Table 5, Seizure (precursor seized in Switzerland), read-out: Potency (EC50, nM) AequoScreen): 7610 nM

**Q.** For `CC(C)(C)C(NC(=O)c1n[nH]c2ccccc12)C(N)=O` (stereo not shown) [ADB-INACA], which “Analgesic effects on paclitaxel-induced peripheral neuropathy” value [3] is on record?
**A.** analgesic effects
